Calls of active or inactive are those of the source. The calls are words filed in the database; no cut-off is given here.
Key:
[1] = system: MDA-MB-231; experiment: Antitumor activity against human MDA-MB-231 cells assessed as reduction in cell viability incubated for 72 hrs by CCK8 assay; conditions: MDA-MB-231, 72 h
[2] = system: MCF7; experiment: Antitumor activity against human MCF7 cells assessed as reduction in cell viability incubated for 72 hrs by CCK8 assay; format: functional, cell-based; conditions: MCF7, 72 h
[3] = system: SK-OV-3; experiment: Inhibition of colony formation in human SK-OV-3 cells at 2.5 nM incubated for 12 days by crystal violet staining based assay relative to control; format: functional; conditions: SK-OV-3, 288 h, time 12 day
[4] = system: MCF7; experiment: Inhibition of colony formation in human MCF7 cells at 25 nM incubated for 72 hrs by crystal violet staining based assay relative to control; format: functional
[5] = system: MCF7; experiment: Inhibition of colony formation in human MCF7 cells at 50 nM incubated for 72 hrs by crystal violet staining based assay relative to control; format: functional
[6] = system: SK-OV-3; experiment: Induction of cell cycle arrest in human SK-OV-3 cells assessed as increase in G2/M phase cells at 5 nM incubated for 24 hrs PI staining based flow cytometric analysis (reference value: 24.6 +/- 2.0%); format: functional
[7] = system: SK-OV-3; experiment: Induction of cell cycle arrest in human SK-OV-3 cells assessed as increase in G2/M phase cells at 40 nM incubated for 24 hrs by PI staining based flow cytometric analysis (reference value: 24.6 +/- 2.0%); format: functional
[8] = system: SK-OV-3; experiment: Induction of cell cycle arrest in human SK-OV-3 cells assessed as upregulation of Cyclin-B1 expression at 25 to 50 nM incubated for 24 hrs by Western blotting analysis; format: functional, cell-based; conditions: dose 25-50 nM
[9] = system: SK-OV-3; experiment: Inhibition of cell migration in human SK-OV-3 cells assessed as reduction in wound closure at 6.25 nM incubated for 24 hrs by wound healing assay (reference value: 21.8 +/- 7.6%); format: functional; conditions: SK-OV-3, 24 h, values are per cent of control
[10] = system: SK-OV-3; experiment: Induction of cell cycle arrest in human SK-OV-3 cells assessed as upregulation of Cdc-2 expression at 25 to 50 nM incubated for 24 hrs by Western blotting analysis; format: functional, cell-based; conditions: dose 25-50 nM
[11] = system: A549; experiment: Induction of cell cycle arrest in human A549 cells assessed as downregulation of Cdc-25c expression incubated for 24 hrs by Western blotting analysis; format: functional, cell-based; conditions: dose 25-100 nM
[12] = system: SK-OV-3; experiment: Induction of apoptosis in human SK-OV-3 cells assessed as increase in apoptotic cells incubated for 48 hrs by IncuCyte live-cell imaging analysis; format: functional, cell-based; conditions: dose 2.5-40 nM
[13] = system: MCF7; experiment: Induction of apoptosis in human MCF7 cells assessed as increase in apoptotic cells at 6.25 to 100 nM incubated for 24 hrs by IncuCyte live-cell imaging analysis; format: functional, cell-based; conditions: dose 6.25-100 nM
[14] = system: SK-OV-3; experiment: Induction of apoptosis in human SK-OV-3 cells assessed as Bax expression at 25 to 50 nM incubated for 24 hrs by Western blotting analysis; format: functional, cell-based; conditions: dose 25-50 nM
[15] = system: SK-OV-3; experiment: Induction of apoptosis in human SK-OV-3 cells assessed as upregulation of Bax expression at 100 nM incubated for 24 hrs by Western blotting analysis; format: functional, cell-based
[16] = system: SK-OV-3; experiment: Induction of apoptosis in human SK-OV-3 cells assessed as downregulation of Bcl-2 expression incubated for 24 hrs by Western blotting analysis; format: functional, cell-based
[17] = system: MCF7; experiment: Induction of apoptosis in human MCF7 cells assessed as downregulation of Bcl-2 expression incubated for 24 hrs by Western blotting analysis; format: functional, cell-based
[18] = system: MCF7; experiment: Induction of apoptosis in human MCF7 cells assessed as downregulation of cleaved-PARP expression at 100 nM incubated for 24 hrs by Western blotting analysis; format: functional, cell-based
[19] = target: Tubulin (Homo sapiens) (UniProt P68371+Q9H4B7+P0DPH7+P68366+Q13509+Q71U36+P04350+Q3ZCM7+P07437+P68363+Q9BQE3+Q6PEY2+Q13885+Q9BVA1+Q9BUF5); experiment: Inhibition of tubulin polymerization (unknown origin) assessed as reduction in optical density at 340 nm; format: protein-complex assay; conditions: dose 5-20 µM
[20] = system: SK-OV-3; experiment: Inhibition of cell migration in human SK-OV-3 cells assessed as wound closure ratio at 3.125 nM incubated for 24 hrs by wound healing assay (reference value: 100%); format: functional; set-up: scale not given: the % may be the effect or the level left
[21] = system: SK-OV-3; experiment: Inhibition of cell migration in human SK-OV-3 cells assessed as wound closure ratio at 50 nM incubated for 24 hrs by wound healing assay (reference value: 100%); format: functional; set-up: scale not given: the % may be the effect or the level left
[22] = system: SK-OV-3; experiment: Inhibition of cell migration in human SK-OV-3 cells assessed as decrease in cell density at 25 to 50 nM incubated for 24 hrs by wound healing assay; format: functional, cell-based; conditions: dose 25-50 nM
[23] = system: MCF7; experiment: Inhibition of cell migration in human MCF7 cells assessed as wound closure at 2.5 nM incubated for 24 hrs by wound healing assay (reference value: 44.5 +/- 8.8%); format: functional; set-up: scale not given: the % may be the effect or the level left
[24] = system: MCF7; experiment: Inhibition of cell migration in human MCF7 cells assessed as wound closure at 10 nM incubated for 24 hrs by wound healing assay (reference value: 44.5 +/- 8.8%); format: functional; set-up: scale not given: the % may be the effect or the level left
[25] = system: MCF7; experiment: Inhibition of cell migration in human MCF7 cells assessed as wound closure ratio at 1.25 nM incubated for 24 hrs by wound healing assay (reference value: 100%); format: functional; set-up: scale not given: the % may be the effect or the level left
[26] = system: SK-OV-3; experiment: Inhibition of cell migration in human SK-OV-3 cells assessed as area of migrated cells at 1.25 nM incubated for 24 hrs by crystal violet staining based inverted microscopic analysis (reference value: 30.1 +/- 1.3 mm^3); format: functional
[27] = system: SK-OV-3; experiment: Inhibition of cell migration in human SK-OV-3 cells assessed as area of migrated cells at 10 nM incubated for 24 hrs by crystal violet staining based inverted microscopic analysis (reference value: 30.1 +/- 1.3 mm^3); format: functional
[28] = system: SK-OV-3; experiment: Inhibition of cell migration in human SK-OV-3 cells assessed as ratio of migrated cells at 1.25 nM incubated for 24 hrs by Transwell assay (reference value: 100 %); format: functional; set-up: scale not given: the % may be the effect or the level left
[29] = system: SK-OV-3; experiment: Inhibition of cell migration in human SK-OV-3 cells assessed as ratio of migrated cells at 5 nM incubated for 24 hrs by Transwell assay (reference value: 100 %); format: functional; set-up: scale not given: the % may be the effect or the level left
[30] = system: SK-OV-3; experiment: Inhibition of cell migration in human SK-OV-3 cells assessed as ratio of migrated cells at 20 nM incubated for 24 hrs by Transwell assay (reference value: 100 %); format: functional; set-up: scale not given: the % may be the effect or the level left
[31] = system: MCF7; experiment: Inhibition of cell migration in human MCF7 cells assessed as area of migrated cells at 6.25 nM incubated for 24 hrs by crystal violet staining based inverted microscopic analysis (reference value: 18.5 +/- 0.3 mm^3); format: functional
[32] = Toxicity in female BALB/c nude mouse xenografted with human SK-OV-3 cells assessed as drug tolerance reduction in food intake at 30 mg/kg, administered via tail vein for 5 days and measured daily; format: organism-based; conditions: in vivo, iv, 120 h, time 5 day
[33] = Toxicity in female BALB/c nude mouse xenografted with human SK-OV-3 cells assessed as drug tolerance by measuring reduction in water intake at 30 mg/kg, administered via tail vein for 5 days and measured daily; format: organism-based; conditions: in vivo, iv, 120 h, time 5 day
[34] = Toxicity in female BALB/c nude mouse xenografted with human SK-OV-3 cells assessed as drug tolerance by measuring loose stools at 30 mg/kg, administered via tail vein for 5 days and measured daily; format: organism-based, Feces; conditions: in vivo, iv, 120 h, time 5 day
[35] = Toxicity in female BALB/c nude mouse xenografted with human SK-OV-3 cells assessed as animal death at 15 mg/kg, administered via tail vein for 5 days and measured daily; format: organism-based; conditions: in vivo, iv, 120 h, time 5 day

Question: For CNc1nc(N2CCCc3cc(OC)ccc32)c2cc(F)ccc2n1, which IC50 [1] is on record?
Answer: 1 nM

Question: What about the IC50 [2] of the same compound?
Answer: 0.4 nM

Question: What about the inhibition at 0.0025 µM [3] of the same compound?
Answer: 56.2%

Question: What about the inhibition at 0.025 µM [4] of the same compound?
Answer: 32.8%

Question: What about the inhibition at 0.05 µM [5] of the same compound?
Answer: 42.2%

Question: What about the Activity [6] of the same compound?
Answer: 29.6%

Question: And the Activity [7]?
Answer: 94.5%

Question: And the Activity [8]?
Answer: inactive

Question: And the response, % of control at 0.00625 µM [9]?
Answer: 18.4%

Question: What about the Activity [10] of the same compound?
Answer: Active

Question: And the Activity [11]?
Answer: Dose-dependent-effect

Question: What about the Activity [12] of the same compound?
Answer: Dose-dependent-effect

Question: What about the Activity [13] of the same compound?
Answer: Active

Question: And the Activity [14]?
Answer: inactive

Question: What about the Activity [15] of the same compound?
Answer: Active

Question: And the Activity [16]?
Answer: Active

Question: What about the Activity [17] of the same compound?
Answer: Active

Question: And the Activity [18]?
Answer: inactive

Question: And the inhibition [19]?
Answer: Dose-dependent-effect

Question: What about the Activity [20] of the same compound?
Answer: 104.5%

Question: And the Activity [21]?
Answer: 22.7%

Question: And the inhibition [22]?
Answer: Active

Question: And the Activity [23]?
Answer: 44%

Question: And the Activity [24]?
Answer: 46.5%

Question: And the Activity [25]?
Answer: 105.5%

Question: And the Activity [26]?
Answer: 21.7 mm3

Question: And the Activity [27]?
Answer: 6.8 mm3

Question: And the Activity [28]?
Answer: 72.3%

Question: And the Activity [29]?
Answer: 48.8%

Question: And the Activity [30]?
Answer: 11.9%

Question: What about the Activity [31] of the same compound?
Answer: 16.4 mm3

Question: What about the Activity [32] of the same compound?
Answer: Toxic

Question: And the Activity [33]?
Answer: Toxic

Question: What about the Activity [34] of the same compound?
Answer: Toxic

Question: And the Activity [35]?
Answer: Non-toxic
